# Measurements as given in ChEMBL document CHEMBL4825673, “Total and Semisyntheses of Polymyxin Analogues with 2-Thr or 10-Thr Modifications to Decipher the Structure-Activity Relationship and Improve the Antibacterial Activity” (J Med Chem, 2021).
# What was measured:
# [1] = system: Pseudomonas aeruginosa; experiment: Antibacterial activity against Pseudomonas aeruginosa PAO1 assessed as inhibition of bacterial growth incubated for 24 hrs by broth microdilution method; assay type: functional; conditions: read-out: MIC100
# [2] = system: HK-2; experiment: Cytotoxicity against human HK-2 cells assessed as cell viability incubated for 72 hrs by CCK-8 assay; assay type: cell-based; conditions: hk-2, 72 h
# [3] = system: Pseudomonas aeruginosa; experiment: Antibacterial activity against Pseudomonas aeruginosa assessed as inhibition of bacterial growth incubated for 24 hrs by broth microdilution method; assay type: functional; conditions: read-out: MIC100
# [4] = system: Escherichia coli; experiment: Antibacterial activity against Escherichia coli assessed as inhibition of bacterial growth incubated for 24 hrs by broth microdilution method; assay type: functional; conditions: read-out: MIC100
# [5] = system: Acinetobacter baumannii; experiment: Antibacterial activity against Acinetobacter baumannii assessed as inhibition of bacterial growth incubated for 24 hrs by broth microdilution method; assay type: functional; conditions: read-out: MIC100
# [6] = system: Klebsiella pneumoniae; experiment: Antibacterial activity against Klebsiella pneumoniae assessed as inhibition of bacterial growth incubated for 24 hrs by broth microdilution method; assay type: functional; conditions: read-out: MIC100
# [7] = system: Moraxella catarrhalis; experiment: Antibacterial activity against Moraxella catarrhalis assessed as inhibition of bacterial growth incubated for 24 hrs by broth microdilution method; assay type: functional; conditions: read-out: MIC100
MIC [1] [µg/mL],MIC [3] [µg/mL],MIC [4] [µg/mL],MIC [5] [µg/mL],MIC [6] [µg/mL],MIC [7] [µg/mL],Compound,Activity [2]
32,–,–,–,–,–,CCCCCCCC(=O)N[C@@H](CCN)C(=O)N[C@H](C(=O)N[C@@H](CCN)C(=O)N[C@H]1CCNC(=O)[C@H](CCC(N)=O)NC(=O)[C@H](CCN)NC(=O)[C@H](CCN)NC(=O)[C@H](CC(C)C)NC(=O)[C@@H](Cc2ccccc2)NC(=O)[C@H](CCN)NC1=O)[C@@H](C)O,Non-Toxic
4,–,–,–,–,–,CC[C@H](C)CCCCC(=O)N[C@@H](CCN)C(=O)N[C@H](C(=O)N[C@@H](CCN)C(=O)N[C@H]1CCNC(=O)[C@H]([C@@H](C)OC(=O)[C@@H](N)CCCCN)NC(=O)[C@H](CCN)NC(=O)[C@H](CCN)NC(=O)[C@H](CC(C)C)NC(=O)[C@@H](Cc2ccccc2)NC(=O)[C@H](CCN)NC1=O)[C@@H](C)OC(=O)[C@@H](N)CCCCN,Non-Toxic
4,–,–,–,–,–,CC[C@H](C)CCCCC(=O)N[C@@H](CCN)C(=O)N[C@H](C(=O)N[C@@H](CCN)C(=O)N[C@H]1CCNC(=O)[C@H]([C@@H](C)OC(=O)[C@@H](N)CC(=O)O)NC(=O)[C@H](CCN)NC(=O)[C@H](CCN)NC(=O)[C@H](CC(C)C)NC(=O)[C@@H](Cc2ccccc2)NC(=O)[C@H](CCN)NC1=O)[C@@H](C)OC(=O)[C@@H](N)CC(=O)O,Non-Toxic
4,0.25,2,0.06,2,2,CCCCCCCC(=O)N[C@@H](CCN)C(=O)N[C@H](C(=O)N[C@@H](CCN)C(=O)N[C@H]1CCNC(=O)[C@H](Cc2ccccc2)NC(=O)[C@H](CCN)NC(=O)[C@H](CCN)NC(=O)[C@H](CC(C)C)NC(=O)[C@@H](Cc2ccccc2)NC(=O)[C@H](CCN)NC1=O)[C@@H](C)O,Non-Toxic
2,0.5,0.5,0.125,4,8,CC(C)CCCCC(=O)N[C@@H](CCN)C(=O)N[C@H](C(=O)N[C@@H](CCN)C(=O)N[C@H]1CCNC(=O)[C@H]([C@@H](C)O)NC(=O)[C@H](CCN)NC(=O)[C@H](CCN)NC(=O)[C@H](CC(C)C)NC(=O)[C@@H](Cc2ccccc2)NC(=O)[C@H](CCN)NC1=O)[C@@H](C)OC(=O)[C@@H](N)Cc1c[nH]cn1,–
2,0.25,1,2,1,8,CC(C)CCCCC(=O)N[C@@H](CCN)C(=O)N[C@@H](CC(C)C)C(=O)N[C@@H](CCN)C(=O)N[C@H]1CCNC(=O)[C@H]([C@@H](C)O)NC(=O)[C@H](CCN)NC(=O)[C@H](CCN)NC(=O)[C@H](CC(C)C)NC(=O)[C@@H](Cc2ccccc2)NC(=O)[C@H](CCN)NC1=O,–
2,0.06,2,0.25,2,4,CCCCCCCC(=O)N[C@@H](CCN)C(=O)N[C@H](C(=O)N[C@@H](CCN)C(=O)N[C@H]1CCNC(=O)[C@H](CS)NC(=O)[C@H](CCN)NC(=O)[C@H](CCN)NC(=O)[C@H](CC(C)C)NC(=O)[C@@H](Cc2ccccc2)NC(=O)[C@H](CCN)NC1=O)[C@@H](C)O,–
–,–,–,–,–,–,CC[C@H](C)CCCCC(=O)N[C@@H](CCN)C(=O)N[C@H](C(=O)N[C@@H](CCN)C(=O)N[C@H]1CCNC(=O)[C@H]([C@@H](C)O)NC(=O)[C@H](CCN)NC(=O)[C@H](CCN)NC(=O)[C@H](CC(C)C)NC(=O)[C@@H](Cc2ccccc2)NC(=O)[C@H](CCN)NC1=O)[C@@H](C)OC(=O)[C@@H](N)CCC(N)=O,Non-Toxic
2,0.5,0.5,0.25,1,> 16,CC(C)CCCCC(=O)N[C@@H](CCN)C(=O)N[C@H](C(=O)N[C@@H](CCN)C(=O)N[C@H]1CCNC(=O)[C@H]([C@@H](C)O)NC(=O)[C@H](CCN)NC(=O)[C@H](CCN)NC(=O)[C@H](CC(C)C)NC(=O)[C@@H](Cc2ccccc2)NC(=O)[C@H](CCN)NC1=O)[C@@H](C)OC(=O)[C@@H](N)CCCNC(=N)N,–
4,0.125,0.25,0.06,1,> 16,CC(C)CCCCC(=O)N[C@@H](CCN)C(=O)N[C@H](C(=O)N[C@@H](CCN)C(=O)N[C@H]1CCNC(=O)[C@H]([C@@H](C)O)NC(=O)[C@H](CCN)NC(=O)[C@H](CCN)NC(=O)[C@H](CC(C)C)NC(=O)[C@@H](Cc2ccccc2)NC(=O)[C@H](CCN)NC1=O)[C@@H](C)OC(=O)[C@@H](N)CC(C)C,–
2,0.25,0.5,0.125,4,> 64,CC(C)CCCCC(=O)N[C@@H](CCN)C(=O)N[C@H](C(=O)N[C@@H](CCN)C(=O)N[C@H]1CCNC(=O)[C@H]([C@@H](C)O)NC(=O)[C@H](CCN)NC(=O)[C@H](CCN)NC(=O)[C@H](CC(C)C)NC(=O)[C@@H](Cc2ccccc2)NC(=O)[C@H](CCN)NC1=O)[C@@H](C)OC(=O)[C@@H](N)CCCCN,–
4,0.125,0.25,0.125,0.5,> 64,CC[C@H](C)CCCCC(=O)N[C@@H](CCN)C(=O)N[C@H](C(=O)N[C@@H](CCN)C(=O)N[C@H]1CCNC(=O)[C@H]([C@@H](C)O)NC(=O)[C@H](CCN)NC(=O)[C@H](CCN)NC(=O)[C@H](CC(C)C)NC(=O)[C@@H](Cc2ccccc2)NC(=O)[C@H](CCN)NC1=O)[C@@H](C)OC(=O)CN,–
1,0.25,0.25,0.125,1,> 64,CC(C)CCCCC(=O)N[C@@H](CCN)C(=O)N[C@H](C(=O)N[C@@H](CCN)C(=O)N[C@H]1CCNC(=O)[C@H]([C@@H](C)OC(=O)CN)NC(=O)[C@H](CCN)NC(=O)[C@H](CCN)NC(=O)[C@H](CC(C)C)NC(=O)[C@@H](Cc2ccccc2)NC(=O)[C@H](CCN)NC1=O)[C@@H](C)OC(=O)CN,–
2,0.125,4,2,> 64,8,CCCCCCCC(=O)N[C@@H](CCN)C(=O)N[C@@H](CCSC)C(=O)N[C@@H](CCN)C(=O)N[C@H]1CCNC(=O)[C@H]([C@@H](C)O)NC(=O)[C@H](CCN)NC(=O)[C@H](CCN)NC(=O)[C@H](CC(C)C)NC(=O)[C@@H](Cc2ccccc2)NC(=O)[C@H](CCN)NC1=O,–
2,0.25,0.25,0.125,1,32,CC(C)CCCCC(=O)N[C@@H](CCN)C(=O)N[C@H](C(=O)N[C@@H](CCN)C(=O)N[C@H]1CCNC(=O)[C@H]([C@@H](C)O)NC(=O)[C@H](CCN)NC(=O)[C@H](CCN)NC(=O)[C@H](CC(C)C)NC(=O)[C@@H](Cc2ccccc2)NC(=O)[C@H](CCN)NC1=O)[C@@H](C)OC(=O)[C@@H](N)CS,–
16,0.5,4,8,> 32,16,CC(=O)O[C@H](C)[C@H](NC(=O)[C@H](CCN)NC(=O)CCCCC(C)C)C(=O)N[C@@H](CCN)C(=O)N[C@H]1CCNC(=O)[C@H]([C@@H](C)O)NC(=O)[C@H](CCN)NC(=O)[C@H](CCN)NC(=O)[C@H](CC(C)C)NC(=O)[C@@H](Cc2ccccc2)NC(=O)[C@H](CCN)NC1=O,–
1,0.125,8,2,> 32,> 32,CC(C)C[C@@H]1NC(=O)[C@@H](Cc2ccccc2)NC(=O)[C@H](CCN)NC(=O)[C@@H](NC(=O)[C@H](CCN)NC(=O)[C@@H](NC(=O)[C@H](CCN)NC(=O)CCCCCCCN)[C@@H](C)O)CCNC(=O)[C@H]([C@@H](C)O)NC(=O)[C@H](CCN)NC(=O)[C@H](CCN)NC1=O,–
4,0.5,8,16,> 16,8,CC(C)CCCCC(=O)N[C@@H](CCN)C(=O)N[C@H](C(=O)N[C@@H](CCN)C(=O)N[C@H]1CCNC(=O)[C@H]([C@@H](C)O)NC(=O)[C@H](CCN)NC(=O)[C@H](CCN)NC(=O)[C@H](CC(C)C)NC(=O)[C@@H](Cc2ccccc2)NC(=O)[C@H](CCN)NC1=O)C(C)C,–
4,0.5,8,1,4,4,CCCCCCCC(=O)N[C@@H](CCN)C(=O)N[C@H](C(=O)N[C@@H](CCN)C(=O)N[C@H]1CCNC(=O)[C@H](C(C)C)NC(=O)[C@H](CCN)NC(=O)[C@H](CCN)NC(=O)[C@H](CC(C)C)NC(=O)[C@@H](Cc2ccccc2)NC(=O)[C@H](CCN)NC1=O)[C@@H](C)O,–
2,0.25,0.25,0.06,1,> 16,CC(C)CCCCC(=O)N[C@@H](CCN)C(=O)N[C@H](C(=O)N[C@@H](CCN)C(=O)N[C@H]1CCNC(=O)[C@H]([C@@H](C)O)NC(=O)[C@H](CCN)NC(=O)[C@H](CCN)NC(=O)[C@H](CC(C)C)NC(=O)[C@@H](Cc2ccccc2)NC(=O)[C@H](CCN)NC1=O)[C@@H](C)OC(=O)CN,–
2,0.125,0.25,0.06,2,> 32,CC(C)CCCCC(=O)N[C@@H](CCN)C(=O)N[C@H](C(=O)N[C@@H](CCN)C(=O)N[C@H]1CCNC(=O)[C@H]([C@@H](C)O)NC(=O)[C@H](CCN)NC(=O)[C@H](CCN)NC(=O)[C@H](CC(C)C)NC(=O)[C@@H](Cc2ccccc2)NC(=O)[C@H](CCN)NC1=O)[C@@H](C)OC(=O)[C@@H](N)Cc1c[nH]c2ccccc12,–
–,–,–,–,–,–,CC[C@H](C)CCCCC(=O)N[C@@H](CCN)C(=O)N[C@H](C(=O)N[C@@H](CCN)C(=O)N[C@H]1CCNC(=O)[C@H]([C@@H](C)O)NC(=O)[C@H](CCN)NC(=O)[C@H](CCN)NC(=O)[C@H](CC(C)C)NC(=O)[C@@H](Cc2ccccc2)NC(=O)[C@H](CCN)NC1=O)[C@@H](C)OC(=O)[C@@H](N)CCC(=O)O,Non-Toxic
